This note sets out measurements from US20240101576A1, “HETEROCYCLIC INHIBITORS OF EGFR AND/OR HER2, FOR USE IN THE TREATMENT OF CANCER” (Scorpion Therapeutics, Inc., priority 2020, published 2024).

Structures are written as SMILES. Bounds are passed on as bounds.

Type in all cases: cell-based
One experiment has as its target T1, EGFR WT (Ba/F3 cells) (Homo sapiens, UniProt P00533).
T1 construct: expressed in transfected cells; host or cells: Ba/F3 (murine pro-B cells), retroviral transduction, puromycin selection, maintained with EGF
Kind of experiment: Inhibitor activity on EGFR-dependent cell growth (CellTiter-Glo, 72 h), Ba/F3 EGFR WT. The note with it: read-out: BaF3 WT IC50. In short, it runs like this: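 This growth assay used Ba/F3 cells that depend on wild-type EGFR and are kept in EGF without IL3. Compounds were made up as 10 mM DMSO stocks and diluted 3-fold over 10 points. 120 nL went onto 600 cells/well. After 72 hours, 40 μL CellTiter-Glo was added and luminescence read on EnVision after 30 min.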

Experiment [1] has as its target T2, EGFR exon 20 NPG Ins D770_N771 (Ba/F3 cells) (Homo sapiens, UniProt P00533, INS770NPG).
T2 construct: expressed in transfected cells; host or cells: Ba/F3 (murine pro-B cells), retroviral transduction, puromycin selection, IL3-independent pool
Kind of experiment: Inhibitor activity on EGFR-dependent cell growth (CellTiter-Glo, 72 h), Ba/F3 EGFR exon 20 NPG Ins. The note with it: read-out: BaF3 NPG IC50. The source says: Example A. Inhibitor Activity on EGFR-Dependent Cell Growth
Cell lines are generated by transducing Ba/F3 cells with retroviruses containing vectors with EGFR WT, EGFR L858R, EGFR exon 19del, EGFR L858R/C797S, EGFR exon 20 NPG Ins D770_N771, EGFR exon 20 ASV Ins V769_D770, EGFR exon 20 SVD Ins D770_N771, or EGFR exon 20 FQEA Ins A763_V764 genes and a puromycin selection marker. Transduced cells are selected with puromycin for 7 days and are then be transferred into culture media without Interleukin 3 (IL3). EGFR WT cells are maintained with supplemental EGF. Surviving cells are confirmed to express EGFR by Western blot and maintained as a pool. The IC50 date were included in Table 6 and Table 7.
1.1 Cells are harvested from flask into cell culture medium and the cell number counted.
1.2 Cells are diluted with culture medium to the desired density and 40 μL of cell suspension is added into each well of 384-well cell culture plate and the seeding density is 800 (FQEA, exon 19del), 600 (WT, NPG, L858R/C797S), or 400 (ASV, SVD, L858R) cells/well.
2 Compound Preparation and Treatment
2.1 Test compounds are dissolved to 10 mM in a DMSO stock solution. 45 μL of stock solution is transferred to a 384 polypropylene plate (pp-plate). Perform 3-fold, 10-point dilution via transferring 15 μL compound into 30 μL DMSO using a TECAN (EVO200) liquid handler.
2.2 Spin plates at room temperature at 1,000 RPM for 1 minute.
2.3 Transfer 120 nL of diluted compound from compound source plate into the cell plate.
2.4 After compound treatment for 72 hours, perform CTG detection for compound treatment plates as described in “Detection” section.
3.1 Plates are removed from incubators and equilibrated at room temperature for 15 minutes.
3.2 Thaw the CellTiter Glo reagents and allow to equilibrate to room temperature before the experiment.
3.3 Add 40 μL of CellTiter-Glo reagent into each well (at 1:1 to culture medium). Then place the plates at room temperature for 30 min followed by reading on EnVision.
4.1 Inhibition activity is calculated following the formula below:
% Inhibition=100×(LumHC−LumSample)/(LumHC−LumLC) • where HC is obtained from cells treated with 0.1% DMSO only; and LC is obtained from culture medium only.
4.2 2. Calculate the IC50 by fitting the Curve using Xlfit (v5.3.1.3), equation 201.
Y=Bottom+(Top−Bottom)/(1+10^((Log IC50−X)*HillSlope))

For experiment [2], the target named is T3, EGFR exon 20 ASV Ins V769_D770 (Ba/F3 cells) (Homo sapiens, UniProt P00533, INS769ASV).
T3 construct: expressed in transfected cells; host or cells: Ba/F3 (murine pro-B cells), retroviral transduction, puromycin selection, IL3-independent pool
The experiment in a line: Inhibitor activity on EGFR-dependent cell growth (CellTiter-Glo, 72 h), Ba/F3 EGFR exon 20 ASV Ins. The note with it: read-out: BaF3 ASV IC50. In short, it runs like this: (§1)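 IC50s derive from a sigmoidal dose–response fit of CellTiter-Glo signal. The signal was normalised between […]-treated cells and cell-free medium. Ba/F3 mutant-EGFR cells, seeded at 400–800/well depending on the line, had 72 h of exposure to a 10-point, 3-fold compound series.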

The target of experiment [3] is T4, EGFR exon 20 SVD Ins D770_N771 (Ba/F3 cells) (Homo sapiens, UniProt P00533, INS770SVD).
T4 construct: expressed in transfected cells; host or cells: Ba/F3 (murine pro-B cells), retroviral transduction, puromycin selection, IL3-independent pool
The experiment in a line: Inhibitor activity on EGFR-dependent cell growth (CellTiter-Glo, 72 h), Ba/F3 EGFR exon 20 SVD Ins. The following applies: read-out: BaF3 SVD IC50. In short, it runs like this: as §1

T3 sequence (P00533 with tags, fused parts or gaps INS769ASV): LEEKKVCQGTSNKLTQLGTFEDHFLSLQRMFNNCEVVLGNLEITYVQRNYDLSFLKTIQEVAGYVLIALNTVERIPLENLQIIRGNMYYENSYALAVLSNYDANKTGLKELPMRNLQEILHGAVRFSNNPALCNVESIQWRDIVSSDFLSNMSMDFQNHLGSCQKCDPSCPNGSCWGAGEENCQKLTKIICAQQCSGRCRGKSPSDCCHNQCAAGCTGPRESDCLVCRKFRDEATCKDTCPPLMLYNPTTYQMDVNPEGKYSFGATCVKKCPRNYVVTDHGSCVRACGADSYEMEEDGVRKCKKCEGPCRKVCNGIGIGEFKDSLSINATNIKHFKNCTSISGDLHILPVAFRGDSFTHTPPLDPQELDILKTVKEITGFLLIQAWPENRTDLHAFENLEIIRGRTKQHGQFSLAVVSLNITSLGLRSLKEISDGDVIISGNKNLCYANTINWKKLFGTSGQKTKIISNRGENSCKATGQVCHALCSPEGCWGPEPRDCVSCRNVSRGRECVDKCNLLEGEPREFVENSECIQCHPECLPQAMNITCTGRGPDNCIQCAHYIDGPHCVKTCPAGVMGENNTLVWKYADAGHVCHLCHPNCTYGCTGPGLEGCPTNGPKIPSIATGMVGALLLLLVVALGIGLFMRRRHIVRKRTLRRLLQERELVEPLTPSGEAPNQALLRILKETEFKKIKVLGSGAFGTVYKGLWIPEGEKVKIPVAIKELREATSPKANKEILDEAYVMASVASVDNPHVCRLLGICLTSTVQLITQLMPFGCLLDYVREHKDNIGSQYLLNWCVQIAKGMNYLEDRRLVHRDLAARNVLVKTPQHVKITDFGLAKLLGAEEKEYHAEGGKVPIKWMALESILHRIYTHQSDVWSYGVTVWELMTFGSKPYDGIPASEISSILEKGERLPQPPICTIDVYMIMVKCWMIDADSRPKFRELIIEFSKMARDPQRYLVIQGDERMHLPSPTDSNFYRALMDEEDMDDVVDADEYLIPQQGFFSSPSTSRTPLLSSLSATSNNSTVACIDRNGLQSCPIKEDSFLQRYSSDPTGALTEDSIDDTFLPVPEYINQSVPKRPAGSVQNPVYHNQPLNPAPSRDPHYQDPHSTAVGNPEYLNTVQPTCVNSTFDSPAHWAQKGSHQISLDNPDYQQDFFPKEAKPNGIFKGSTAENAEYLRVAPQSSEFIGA
T2 sequence (P00533 with tags, fused parts or gaps INS770NPG): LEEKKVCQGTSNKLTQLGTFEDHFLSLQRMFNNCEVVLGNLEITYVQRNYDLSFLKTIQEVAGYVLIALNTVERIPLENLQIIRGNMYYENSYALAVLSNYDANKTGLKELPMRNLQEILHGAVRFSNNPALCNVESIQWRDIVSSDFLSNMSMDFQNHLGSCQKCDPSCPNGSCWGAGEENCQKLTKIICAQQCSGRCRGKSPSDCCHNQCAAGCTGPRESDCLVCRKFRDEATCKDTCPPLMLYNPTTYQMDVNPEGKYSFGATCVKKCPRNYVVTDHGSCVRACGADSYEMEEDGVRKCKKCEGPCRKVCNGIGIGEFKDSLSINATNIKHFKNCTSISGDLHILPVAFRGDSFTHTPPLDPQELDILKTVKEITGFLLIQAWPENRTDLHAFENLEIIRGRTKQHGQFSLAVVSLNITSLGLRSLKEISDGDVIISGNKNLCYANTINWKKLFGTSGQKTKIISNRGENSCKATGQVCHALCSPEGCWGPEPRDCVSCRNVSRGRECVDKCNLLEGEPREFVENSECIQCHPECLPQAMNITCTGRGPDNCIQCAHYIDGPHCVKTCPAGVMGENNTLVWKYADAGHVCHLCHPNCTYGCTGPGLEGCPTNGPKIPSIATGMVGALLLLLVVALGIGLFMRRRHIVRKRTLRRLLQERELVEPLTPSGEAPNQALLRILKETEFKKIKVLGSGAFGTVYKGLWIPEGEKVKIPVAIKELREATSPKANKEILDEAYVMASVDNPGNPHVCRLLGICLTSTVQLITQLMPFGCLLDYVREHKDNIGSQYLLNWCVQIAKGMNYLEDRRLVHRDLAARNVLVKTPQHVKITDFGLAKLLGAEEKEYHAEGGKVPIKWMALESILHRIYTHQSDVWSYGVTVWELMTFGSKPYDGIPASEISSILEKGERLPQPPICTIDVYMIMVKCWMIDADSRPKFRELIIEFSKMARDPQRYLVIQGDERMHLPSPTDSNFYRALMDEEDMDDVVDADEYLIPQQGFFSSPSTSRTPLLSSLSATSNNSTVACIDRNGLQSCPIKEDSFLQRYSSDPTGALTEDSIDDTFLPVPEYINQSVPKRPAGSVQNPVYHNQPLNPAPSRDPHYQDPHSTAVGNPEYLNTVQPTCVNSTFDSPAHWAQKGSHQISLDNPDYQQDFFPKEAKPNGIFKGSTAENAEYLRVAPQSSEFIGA
T1 sequence (P00533 25-1210): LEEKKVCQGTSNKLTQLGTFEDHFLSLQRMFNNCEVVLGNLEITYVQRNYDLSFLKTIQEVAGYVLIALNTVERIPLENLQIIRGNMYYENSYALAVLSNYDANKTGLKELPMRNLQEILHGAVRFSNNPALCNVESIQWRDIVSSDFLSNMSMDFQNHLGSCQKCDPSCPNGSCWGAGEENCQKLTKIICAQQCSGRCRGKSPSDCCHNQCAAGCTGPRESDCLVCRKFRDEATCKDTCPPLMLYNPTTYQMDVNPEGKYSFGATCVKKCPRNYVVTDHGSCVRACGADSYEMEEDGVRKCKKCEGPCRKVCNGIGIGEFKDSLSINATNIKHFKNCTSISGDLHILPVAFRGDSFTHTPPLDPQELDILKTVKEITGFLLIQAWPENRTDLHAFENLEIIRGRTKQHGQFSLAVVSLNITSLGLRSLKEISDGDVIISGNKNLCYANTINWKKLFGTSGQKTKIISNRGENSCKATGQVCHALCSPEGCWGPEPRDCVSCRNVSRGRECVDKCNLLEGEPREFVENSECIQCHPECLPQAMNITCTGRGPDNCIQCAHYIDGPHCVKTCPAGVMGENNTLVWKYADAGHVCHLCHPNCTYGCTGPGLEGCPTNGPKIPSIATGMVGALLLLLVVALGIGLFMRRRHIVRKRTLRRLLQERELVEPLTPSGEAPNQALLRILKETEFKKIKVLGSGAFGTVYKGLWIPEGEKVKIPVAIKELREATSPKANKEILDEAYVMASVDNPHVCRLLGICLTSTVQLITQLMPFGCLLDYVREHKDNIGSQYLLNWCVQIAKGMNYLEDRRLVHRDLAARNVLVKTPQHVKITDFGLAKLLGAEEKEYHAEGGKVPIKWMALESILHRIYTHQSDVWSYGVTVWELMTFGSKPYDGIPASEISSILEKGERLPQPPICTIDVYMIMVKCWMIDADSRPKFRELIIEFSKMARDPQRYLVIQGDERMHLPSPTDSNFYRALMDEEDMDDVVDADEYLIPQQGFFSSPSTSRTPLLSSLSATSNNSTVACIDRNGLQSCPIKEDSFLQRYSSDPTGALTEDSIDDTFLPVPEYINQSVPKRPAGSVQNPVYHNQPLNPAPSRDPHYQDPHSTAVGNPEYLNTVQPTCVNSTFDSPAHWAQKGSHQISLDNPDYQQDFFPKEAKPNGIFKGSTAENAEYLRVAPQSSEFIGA
T4 sequence (P00533 with tags, fused parts or gaps INS770SVD): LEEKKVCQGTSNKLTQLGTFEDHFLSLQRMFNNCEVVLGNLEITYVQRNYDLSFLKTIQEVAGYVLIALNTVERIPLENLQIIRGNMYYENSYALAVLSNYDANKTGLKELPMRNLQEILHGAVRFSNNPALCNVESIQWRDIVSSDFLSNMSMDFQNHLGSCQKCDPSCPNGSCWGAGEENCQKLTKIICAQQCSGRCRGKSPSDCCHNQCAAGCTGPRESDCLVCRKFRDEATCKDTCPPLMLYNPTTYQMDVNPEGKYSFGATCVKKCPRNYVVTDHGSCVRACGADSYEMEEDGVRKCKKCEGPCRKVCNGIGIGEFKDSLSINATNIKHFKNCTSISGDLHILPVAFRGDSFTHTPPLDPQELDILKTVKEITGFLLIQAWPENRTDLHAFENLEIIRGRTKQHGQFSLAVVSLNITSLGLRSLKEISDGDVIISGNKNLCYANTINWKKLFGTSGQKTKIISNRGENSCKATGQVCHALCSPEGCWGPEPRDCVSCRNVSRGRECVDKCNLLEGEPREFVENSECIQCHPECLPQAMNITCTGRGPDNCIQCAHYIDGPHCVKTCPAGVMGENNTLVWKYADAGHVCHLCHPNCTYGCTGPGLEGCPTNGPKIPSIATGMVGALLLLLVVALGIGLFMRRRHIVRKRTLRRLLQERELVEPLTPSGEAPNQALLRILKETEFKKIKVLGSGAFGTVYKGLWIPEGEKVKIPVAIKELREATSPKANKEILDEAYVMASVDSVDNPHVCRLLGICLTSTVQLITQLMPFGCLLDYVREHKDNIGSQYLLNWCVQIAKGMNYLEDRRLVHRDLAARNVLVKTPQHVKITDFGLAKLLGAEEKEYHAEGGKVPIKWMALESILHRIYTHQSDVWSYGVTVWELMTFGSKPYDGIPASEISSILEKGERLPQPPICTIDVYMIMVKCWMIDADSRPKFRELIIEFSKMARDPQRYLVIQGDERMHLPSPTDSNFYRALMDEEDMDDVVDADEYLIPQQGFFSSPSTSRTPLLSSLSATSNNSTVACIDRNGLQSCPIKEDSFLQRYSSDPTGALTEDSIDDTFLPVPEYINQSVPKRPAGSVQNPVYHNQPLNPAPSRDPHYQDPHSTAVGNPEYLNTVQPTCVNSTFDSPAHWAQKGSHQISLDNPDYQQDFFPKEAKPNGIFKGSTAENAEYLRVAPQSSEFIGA

`C=CC(=O)N1CCC2(CC1)CNC(=O)c1c2[nH]c(-c2ccnc(N)n2)c1Nc1cccc(Cl)c1OC` [Compound 556, 2′-(2-aminopyrimidin-4-yl)-3′-[(3-chloro-2-methoxyphenyl)amino]-1-(prop-2-enoyl)-5′,6′-dihydro-1′H-spiro[piperidine-4,7′-pyrrolo[3,2-c]pyridin]-4′-one]: the IC50 was 100 to 1000 nM on EGFR WT (Ba/F3 cells), below 100 nM in experiment [1], below 100 nM in experiment [2] and below 100 nM in experiment [3].
Take `COC(=O)N1CCC2(CNC(=O)c3c2[nH]c(-c2ccncc2F)c3Nc2cccc(Cl)c2OC)C1` (single isomer, unassigned) [Compound 497]: the IC50 is 100 to 1000 nM on EGFR WT (Ba/F3 cells), below 100 nM in experiment [1], 100 to 1000 nM in experiment [2] and 100 to 1000 nM in experiment [3].
Turning to `COc1c(Cl)cccc1Nc1c(-c2ccnc(-c3ccncn3)n2)[nH]c2c1C(=O)NCC2` [compound 546, 2-{[2,4′-bipyrimidin]-4-yl}-3-[(3-chloro-2-methoxyphenyl)amino]-1H,5H,6H,7H-pyrrolo[3,2-c]pyridin-4-one], the half-maximal inhibitory concentration (IC50) was above 1000 nM at EGFR WT (Ba/F3 cells), 100 to 1000 nM in experiment [1], above 1000 nM in experiment [2] and 100 to 1000 nM in experiment [3].
As for `COc1c(Cl)cccc1Nc1c(-c2ccnc(C)n2)[nH]c2c(C[C@H]3COCCO3)c[nH]c(=O)c12` [compound 659], the IC50 at EGFR WT (Ba/F3 cells) was above 1000 nM; in experiment [1] it was below 100 nM; in experiment [2], below 100 nM; in experiment [3], below 100 nM.
With `COc1c(Cl)cccc1Nc1c(-c2ccnc(Nc3cnnn3CS(C)(=O)=O)n2)[nH]c2c1C(=O)NCC2` [compound 539, 3-[(3-chloro-2-methoxyphenyl)amino]-2-(2-{[3-(methanesulfonylmethyl)-1,2,3-triazol-4-yl]amino}pyrimidin-4-yl)-1H,5H,6H,7H-pyrrolo[3,2-c]pyridin-4-one], the IC50 at EGFR WT (Ba/F3 cells) is above 1000 nM; in experiment [1] it was 100 to 1000 nM; in experiment [2], 100 to 1000 nM; in experiment [3] it was 100 to 1000 nM.
With `COc1c(Cl)cccc1Nc1c(-c2ccnc(-c3cn(C)nn3)n2)[nH]c2c1C(=O)NCC2` [compound 545, 3-[(3-chloro-2-methoxyphenyl)amino]-2-[2-(1-methyl-1,2,3-triazol-4-yl)pyrimidin-4-yl]-1H,5H,6H,7H-pyrrolo[3,2-c]pyridin-4-one], the IC50 was above 1000 nM on EGFR WT (Ba/F3 cells), below 100 nM in experiment [1], 100 to 1000 nM in experiment [2] and 100 to 1000 nM in experiment [3].
Consider `CC#CC(=O)N1CCC2(CC1)CNC(=O)c1c2[nH]c(-c2ccncc2F)c1Nc1cccc(Cl)c1OC` [Compound 555, 1-(but-2-ynoyl)-3′-[(3-chloro-2-methoxyphenyl)amino]-2′-(3-fluoropyridin-4-yl)-5′,6′-dihydro-1′H-spiro[piperidine-4,7′-pyrrolo[3,2-c]pyridin]-4′-one], for which the IC50 (on EGFR WT (Ba/F3 cells); in experiment [1]; in experiment [2]; in experiment [3]) was above 1000 nM throughout.
On to `C=CC(=O)N1CCC2(CC1)CNC(=O)c1c2[nH]c(-c2ccncc2F)c1Nc1cccc(Cl)c1Cl` [Compound 589, 3′-[(2,3-dichlorophenyl)amino]-2′-(3-fluoropyridin-4-yl)-1-(prop-2-enoyl)-5′,6′-dihydro-1′H-spiro[piperidine-4,7′-pyrrolo[3,2-c]pyridin]-4′-one], for which the IC50 at EGFR WT (Ba/F3 cells) is 100 to 1000 nM; in experiment [1] it was below 100 nM; in experiment [2], below 100 nM; in experiment [3] it was below 100 nM.
`CCn1nncc1Nc1nccc(-c2[nH]c3c(c2Nc2cccc(Cl)c2OC)C(=O)NCC3)n1` [compound 538, 3-[(3-chloro-2-methoxyphenyl)amino]-2-{2-[(3-ethyl-1,2,3-triazol-4-yl)amino]pyrimidin-4-yl}-1H,5H,6H,7H-pyrrolo[3,2-c]pyridin-4-one]: the IC50 on EGFR WT (Ba/F3 cells) was 100 to 1000 nM; in experiment [1], below 100 nM; in experiment [2], below 100 nM; in experiment [3], below 100 nM.
As for `COc1c(Cl)cccc1Nc1c(-c2ccnc(-c3cnn(C)n3)n2)[nH]c2c1C(=O)NCC2` [compound 543, 3-[(3-chloro-2-methoxyphenyl)amino]-2-[2-(2-methyl-1,2,3-triazol-4-yl)pyrimidin-4-yl]-1H,5H,6H,7H-pyrrolo[3,2-c]pyridin-4-one], the IC50 on EGFR WT (Ba/F3 cells) was above 1000 nM; in experiment [1], below 100 nM; in experiment [2] it was 100 to 1000 nM; in experiment [3], below 100 nM.
With `COC(=O)N1CC[C@@]2(CNC(=O)c3c2[nH]c(-c2ccncc2F)c3Nc2cccc(Cl)c2OC)C1` [Compound 498, methyl (3R)-3′-[(3-chloro-2-methoxyphenyl)amino]-2′-(3-fluoropyridin-4-yl)-4′-oxo-5′,6′-dihydro-1′H-spiro[pyrrolidine-3,7′-pyrrolo[3,2-c]pyridine]-1-carboxylate], the IC50 was above 1000 nM on EGFR WT (Ba/F3 cells), 100 to 1000 nM in experiment [1], above 1000 nM in experiment [2] and above 1000 nM in experiment [3].
As to `CCn1cc(Nc2nccc(-c3[nH]c4c(c3Nc3cccc(Cl)c3OC)C(=O)NCC4)n2)nn1` [Compound 594, 3-[(3-chloro-2-methoxyphenyl)amino]-2-{2-[(1-ethyl-1,2,3-triazol-4-yl)amino]pyrimidin-4-yl}-1H,5H,6H,7H-pyrrolo[3,2-c]pyridin-4-one], the 50% inhibitory concentration (IC50) at EGFR WT (Ba/F3 cells) is 100 to 1000 nM; in experiment [1] it was below 100 nM; in experiment [2] it was below 100 nM; in experiment [3], below 100 nM.
`COc1c(Cl)cccc1Nc1c(-c2ccncc2F)[nH]c2c1C(=O)NCC21CCN(C(=O)/C=C/CN(C)C)CC1` [Compound 522, 3′-[(3-chloro-2-methoxyphenyl)amino]-1-[4-(dimethylamino)but-2-enoyl]-2′-(3-fluoropyridin-4-yl)-5′,6′-dihydro-1′H-spiro[piperidine-4,7′-pyrrolo[3,2-c]pyridin]-4′-one]: the IC50 is above 1000 nM at EGFR WT (Ba/F3 cells), 100 to 1000 nM in experiment [1], 100 to 1000 nM in experiment [2] and 100 to 1000 nM in experiment [3].
Regarding `COc1c(F)cccc1Nc1c(-c2ccnc3cnc(N4CCN(C(=O)/C=C/CN(C)C)CC4)nc23)[nH]c2c1C(=O)NCC2` [Compound 577, 2-(2-{4-[(2E)-4-(dimethylamino)but-2-enoyl]piperazin-1-yl}pyrido[3,2-d]pyrimidin-8-yl)-3-[(3-fluoro-2-methoxyphenyl)amino]-1H,5H,6H,7H-pyrrolo[3,2-c]pyridin-4-one], the IC50 was 100 to 1000 nM on EGFR WT (Ba/F3 cells), below 100 nM in experiment [1], below 100 nM in experiment [2] and below 100 nM in experiment [3].
As for `COc1c(Cl)cccc1Nc1c(-c2ccnc(-c3cnn(C)c3)n2)[nH]c2c1C(=O)NCC2` [compound 121], the IC50 is 100 to 1000 nM at EGFR WT (Ba/F3 cells), below 100 nM in experiment [1], below 100 nM in experiment [2] and below 100 nM in experiment [3].
In the case of `COc1c(F)cccc1Nc1c(-c2ccnc(C)n2)[nH]c2c1C(=O)NCC2C[C@@H]1COCCO1` (single isomer, unassigned) [Compound 605], the IC50 at EGFR WT (Ba/F3 cells) is above 1000 nM; in experiment [1], 100 to 1000 nM; in experiment [2], 100 to 1000 nM; in experiment [3] it was 100 to 1000 nM.
